Patent US9063046B1, “Hand-held device with reagents and method for detection and diagnostics” (priority 2012, dated 2015)

Experiments:
[1] = test system: P. aeruginosa; set-up: species or system Pseudomonas aeruginosa
[2] = test system: B. atrophaeus endospores; set-up: species or system Bacillus atrophaeus
[3] = test system: VACV; set-up: species or system Vaccinia virus
[4] = test system: spores of B. atrophaeus; format: cell-based, Bacillus atrophaeus
[5] = test system: Pixuna virus (PIXV); format: cell-based; conditions: screening, FIG. 1; guanidium thiocyanate at 3.5 M

## cupric ascorbate
[1]
  ELISA sensitivity for vegetative bacteria, of untreated controls: 80-90%
[2]
  ELISA sensitivity for spores, of untreated controls: 80-90%

## CC(=O)OO [peracetic acid]
[3]
  ELISA sensitivity for VACV, of untreated controls: ~50%

## OO [hydrogen peroxide]
[4]
  killing / inactivating effect on spores: did not completely kill all of the spores

## O=CCCCC=O [glutaraldehyde]
[4]
  killing / inactivating effect on spores: did not completely kill all of the spores

## N#CS.N=C(N)N [Guanidium thiocyanate, guanidium thiocyanate]
[5]
  inactivating effect on PIXV: little inactivating effect
[4]
  killing / inactivating effect on spores: little inactivating effect
